In patent US11977086B2, “Biomarker detection from breath samples” (Hound Labs, Inc., priority 2019, dated 2024):

Assays:
[1] = THC in breath after smoking, samples collected with a Hound Labs device and analyzed by mass spectrometry; type: in vivo, human
[2] = pH>8; cited from earlier work
[3] = compared with THC; cited from earlier work

Row | Compound | measured amount of THC in breath sample indicative of recent usage ([1]; breath sample of 0.5 liters, usage within the three hours prior to collection) | baseline breath THC, maximum ([1]; chronic or frequent smokers who have not smoked for several hours) | maximum baseline breath THC per liter ([1]; chronic users, 12 pg/5 L converted to per liter) | time THC is detected in breath after smoking ([1]; on average, 430 tests, smoking indoors or outdoors, mass spectrometry) | solubility versus pH [2] | resistance to oxidation [3]
1 | CCCCCc1cc(O)c2c(c1)OC(C)(C)[C@@H]1CCC(C)=C[C@@H]21 [THC, tetrahydrocannabinol] | 1-10 picograms (pg) | ≤ 12 pg/5 L breath | ≤ 2.4 pg/L | 2 to 3 h | higher solubility | –
2 | CCCCCc1cc2c(c(O)c1C(=O)O)[C@@H]1C=C(C)CC[C@H]1C(C)(C)O2 [THCA] | – | – | – | – | – | higher resistance to oxidation
